Values quoted from earlier work as cited in patent publication US7858126B2 (Trinity Laboratories Inc., priority 2006, dated 2010).

Assays:
skin papillomas = conditions: mice, DMBA-initiated, TPA-promoted
[1] = tested on: ornithine decarboxylase (ODC); conditions: mice

santalol
decrease of papilloma incidence (skin papillomas): 67%
decrease of papilloma multiplicity (skin papillomas): 96%
decrease of TPA-induced ODC activity [1]: 70%
